Laboratory results taken from US20070141687A1, “Increase in stress tolerance with ascorbic acid during fermentation” (priority 2005, published 2007).
Read-outs that look alike come from different tables or passages of the source.

Tests used:
YML007w yeast [1] = tested on: YML007w yeast
Description: Yeast strains used were S. cerevisiae GRF18U (Brambilla, L. et al., 1999, FEMS Microb. Lett. 171, 133-140), S. cerevisiae GRFc (Brambilla et al. 1999 FEMS Microb. Lett. 171: 133-140), S. cerevisiae BY4742 (MATα; his3; leu2, lys2; ura3, EuroScarf Accession No. Y10000), S. cerevisiae YML007w (BY4742; MATα; his3; leu2, lys2; ura; YML007w::KanMX4 (the yap1 deleted strain) EuroScarf Accession No. Y10569); CEN.PK 113-5D (MATα ura3-52; cir+) (see, for example, VanDijken et al. (2000) Enzyme Microb. Technol. 26, 706-714); and BY4741 (MATα; his3; leu2; met 15; ura3, Euroscarf Accession No. Y00000), or strains derived from them through transformation with the different developed plasmids. All strains were cultivated in shake flasks in minimal medium (0.67% w/v YNB (Difco Laboratories, Detroit, Mich. #919-15), 2% w/v glucose or mannose, with addition of the appropriate amino acids or adenine or uracil, respectively, to 50 μL-^1) and/or the appropriate antibiotic (G418 or hygromicin to 500 mg/l and 400 mg/l, respectively) under standard conditions (shaking at 30° C.). The initial optical density at 660 nm was about 0.05 for ascorbic acid determination, and 0.1 for the kinetics of the recovery from oxidative stress.
The yeast strains were grown on mineral medium (2% glucose, 0.67% YNB) starting from an OD^660 of 0.1. […]

YML007w yeast [2] = assay: Growth (OD660) of yap1-deleted yeast under H2O2 oxidative stress with ascorbic acid in the medium; assay type: cell-based, S. cerevisiae; conditions: 0.8 or 1.0 mM H2O2; ascorbic acid added at T=0 at 15 mg/L; minimal medium 2% glucose
Procedure: FIG. 3A. […] Ascorbic acid was added at T=0 at a final concentration of 15 mg/L. BY4742 (▴); YML007w (◯).
FIG. 3B. […] Ascorbic acid was added at T=0 at a final concentration of 15 mg/L. BY4742 (▴); YML007w (◯).

[3] = tested on: S. cerevisiae strain NRRL Y-30696; assay: Growth and lactic acid production of lactic acid producing yeast with exogenous ascorbic acid; assay type: cell-based; conditions: minimal glucose medium, 2.78 g/L CaCO3, 0, 0.16, 0.3 or 0.6 g/L ascorbic acid
Procedure: S. cerevisiae strain NRRL Y-30696 was inoculated in minimal glucose medium and 2.78 g/L CaCO3 or minimal glucose medium with 2.78 g/L CaCO3 and 0.16, 0.3, or 0.6 g/L ascorbic acid. OD660 (open symbols) and lactic acid (closed symbols) were monitored with time. The pH dropped in each case to 2.5 at 67 hours.

[4] = tested on: GRFc, BY4741, and CEN.PK 113-5D yeast strains; assay: Growth of wild type yeast strains in medium containing lactic acid at pH 3 with added ascorbic acid; conditions: 2xYNB medium, lactic acid 40 g/l, pH3
Procedure: Ascorbic acid was added to the medium at the concentrations shown.

| Compound | growth of YML007w yeast host (YML007w yeast [1]; 0.8 mM hydrogen peroxide in medium) | growth of YML007w yeast host (YML007w yeast [1]; 1 mM hydrogen peroxide in medium) | growth sensitivity of YML007w yeast to H2O2 (OD660) (YML007w yeast [2]) | lactic acid production [3] | growth as measured by OD660 ([3]; pH dropped to 2.5 at 67 hours) | dose dependence of the effect of ascorbic acid on growth [4] | effect on growth inhibition by lactic acid (OD660) ([4]; zero or increasing ascorbic acid) |
| --- | --- | --- | --- | --- | --- | --- | --- |
| OO [hydrogen peroxide] | strongly delayed | completely impaired | – | – | – | – | – |
| O=C1O[C@H]([C@@H](O)CO)C(O)=C1O [ascorbic acid, L-ascorbic acid] | – | – | can be rescued | equivalent at each level | increased with increasing ascorbic acid | dose dependent | negative effects of lactic acid on growth can be overcome |
